Earlier results as cited in patent publication US7767688B2, “Combination of pyrimidylaminobenzamide compounds and imatinib for treating gastrointestinal stromal tumours” (Novartis AG, priority 2005, dated 2010).

Molecular target: PDGFRA V561D juxtamembrane domain mutation (Homo sapiens, UniProt P16234, V561D)
Settings: V561D compared with D842V kinase domain mutation

Chain of PDGFRA V561D juxtamembrane domain mutation (P16234 24-1089 V561D): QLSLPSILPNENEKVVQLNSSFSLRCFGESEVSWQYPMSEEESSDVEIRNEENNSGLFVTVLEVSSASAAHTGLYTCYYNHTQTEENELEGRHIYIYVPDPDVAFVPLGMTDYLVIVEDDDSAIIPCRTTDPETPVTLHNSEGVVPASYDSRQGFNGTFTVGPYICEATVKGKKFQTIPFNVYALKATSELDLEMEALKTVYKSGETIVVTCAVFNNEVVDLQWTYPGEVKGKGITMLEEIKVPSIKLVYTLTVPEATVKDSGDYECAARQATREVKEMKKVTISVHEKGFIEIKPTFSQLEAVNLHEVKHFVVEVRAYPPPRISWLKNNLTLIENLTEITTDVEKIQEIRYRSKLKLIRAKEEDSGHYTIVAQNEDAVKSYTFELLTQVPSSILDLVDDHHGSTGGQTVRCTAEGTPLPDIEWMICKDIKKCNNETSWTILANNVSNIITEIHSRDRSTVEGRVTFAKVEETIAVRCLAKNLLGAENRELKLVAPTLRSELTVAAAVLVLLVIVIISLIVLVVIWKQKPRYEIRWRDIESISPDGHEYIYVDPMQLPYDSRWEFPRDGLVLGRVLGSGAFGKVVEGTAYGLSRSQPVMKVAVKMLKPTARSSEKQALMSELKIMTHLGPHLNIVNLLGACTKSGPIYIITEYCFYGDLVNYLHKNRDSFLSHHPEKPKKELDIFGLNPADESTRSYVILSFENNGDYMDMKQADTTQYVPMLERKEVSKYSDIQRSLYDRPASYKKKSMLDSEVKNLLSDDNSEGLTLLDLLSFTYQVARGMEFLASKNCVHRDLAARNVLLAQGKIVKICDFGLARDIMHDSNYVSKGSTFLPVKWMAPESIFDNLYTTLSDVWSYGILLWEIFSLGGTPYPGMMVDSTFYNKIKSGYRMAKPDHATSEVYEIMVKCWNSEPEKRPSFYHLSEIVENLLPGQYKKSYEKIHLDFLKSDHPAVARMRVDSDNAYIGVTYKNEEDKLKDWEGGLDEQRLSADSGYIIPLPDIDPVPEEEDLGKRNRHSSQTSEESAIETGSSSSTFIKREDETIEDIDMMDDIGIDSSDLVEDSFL

Cc1ccc(NC(=O)c2ccc(CN3CCN(C)CC3)cc2)cc1Nc1nccc(-c2cccnc2)n1 [imatinib]
Sensitivity to imatinib by location of PDGFRA mutation: more sensitive to imatinib than the D842V kinase domain mutation
